Results on seven compounds are retold here after patent publication US20240325760A1, “METHODS FOR DETECTING AND PREVENTING ALZHEIMER'S DISEASE AND MILD COGNITIVE IMPAIRMENT” (RAMOT AT TEL-AVIV UNIVERSITY LTD., priority 2021, published 2024).

Data set [1] concerns cultured hippocampal neurons (hippocampal networks ex vivo). The experiment in a line: Mean firing rate (MFR) of hippocampal cultures on multi-electrode arrays. In kind it is cell-based, mouse. To be noted: for network MFR after isoflurane application: isoflurane 1%, 24 hour. As to the method: Multi-electrode array (MEA). Postnatal hippocampal cultures were plated on MEA plates containing 120 titanium nitride (TiN) electrodes, in addition to 4 internal reference and 4 ground electrodes (Styr et al., 2019). Each electrode has a diameter of 30 μm and electrodes are arranged in a 12×12 grid (sparing 6 electrodes in each corner), spaced 100-200 μm apart on average (Multi Channel Systems, 120MEA200/30iR-Ti). Data acquisition was done in 3-weeks-old cultures using a standard MEA2100-Systems with a hardware filter cut-off of 3.3 kHz and sampling rate of 10 kHz per electrode. Recordings were carried out under constant 37° C. and 5% CO2 levels.
Data analysis: Raw data was filtered, offline, at 200 Hz using a Butterworth high-pass filter. Spikes were then detected, offline, using MC_Rack software (Multi Channel Systems) based on a fixed threshold set to between 5-6 standard deviations from mean. Twenty minutes of each hour (that were previously shown to reliably represent the MFR of the entire hour, were used for analysis to reduce processing time and analyzed using custom-written scripts in MATLAB (Mathworks) as previously described (Slomowitz et al., 2015). Channels with unstable (>30% change of MFR) baseline recordings during 3-4 hours prior to a perturbation were excluded from the analysis.

Data set [2] relates to APP/PS1 mice. The experiment in a line: Spatial working memory, delta-maze alternation test after general anesthesia. Format: in vivo, mouse. Particulars: 4-5-month-old APP/PS1 mice; isoflurane inhalation 1.5%, 3 hour; 10, 20 and 60 sec delays.
For data set [3], the system named is anesthetized APP/PS1 mice. The experiment in a line: LFP recording of epileptiform high-voltage CA1 spikes under anesthesia. In kind it is in vivo. The procedure:
For intracerebroventricular (ICV) ainjections, a small hole was drilled in the skull above the left lateral ventricle (0.7 mm posterior, 1.2 mm lateral to bregma), and a 5 mm guide cannula was slowly inserted into the ventricle and fixed to the skull by dental cement (C&B Metabond, Parkell). The guide cannula was sealed with a 5 mm sterile metal bar to prevent CSF leakage and possible infections. 1-2 weeks after the surgery, the mice received ICV injections using a 10 μl syringe (Hamilton). The mice were injected with 1 μl containing 27 μg of teriflunomide (TERI), dissolved in DMSO or vehicle (1 μl of DMSO) with speed of 0.15 μl/min (Nano Jet stereotaxic syringe pump).
LFP/fEPSP recordings. Small diameter holes were drilled in the skull at the position of the recording and stimulating electrodes. […] Ground electrode was screwed to the skull above the cerebellum. Test stimuli of 50-100 μA were delivered to the SC at 0.06 Hz to verify the proper location of the electrodes and to estimate the stability of the signal. The electrodes were firmly fixed to the skull by dental cement (C&B Metabond, Parkell) and dental acrylic. Operated mice recovered in their home cage for at least a week following electrodes implantation. For evoked field excitatory postsynaptic potential (fEPSP) recordings in CA3-CA1 synapses in awake mice (FIGS. 1F-1G), mice were habituated for a few days to the experimental device that was composed from a running wheel and metal bar in which the mice were head fixed into throughout the experiment with a screw. Following habituation, the mice were head fixed to the experimental device, and CA3-CA1 fEPSP measurements were taken 30 minutes after.
Ca^2+ imaging and LFP recording in anesthetized mice. For Ca^2+ imaging and LFP recording sessions during anesthesia, mice were placed in an induction chamber connected to isoflurane vaporizer (Isotec 5), gas flow rate was turned on to 0.8 LPM (litre per minute) and the vaporizer was set at 5% isoflurane. […] Respiration and heart rate were monitored and analyzed by the physiological monitoring system. […] Temperature was also maintained by the device at 37° C. throughout the procedure.
Detection of pathological spikes in fAD models. High-voltage pathological spikes were detected by setting a threshold of 10 z-scores above and below the mean voltage during the suppression epochs of the recording and accepted only if their peak-to-peak value within 30 ms was greater than 10 z-scores. A dead-time of 50 ms was set to assure the same spike was not counted twice. Subsequently, all spikes were manually inspected and approved.

Data set [4] has as its system CA1 neuronal populations of WT and APP/PS1 mice. Briefly: Ca2+ imaging of CA1 population activity under anesthesia. In kind it is in vivo, mouse.
In data set [5] the test system is nRE-CA1 synapses. The experiment in a line: nRE-CA1 synaptic transmission in APP/PS1 mice expressing hM4D(Gi)-mCherry. To be noted: data not shown. In kind it is in vivo, mouse.
Data set [6] concerns CA3-CA1 synaptic connections in hippocampal slices. The experiment in a line: Dose-response of TERI on fEPSP amplitude in acute hippocampal slices. Format: cell-based, mouse. As to the method:
Electrophysiology in slices. Acute hippocampal slices (coronal, 400 μm) were prepared from WT and APP/PS1 mice. Slices were transferred to a submerged recovery chamber at 32° C. containing oxygenated (95% O2 and 5% CO2) artificial cerebrospinal fluid (ACSF) for 1 h before the experiment. The ACSF contained, in mM: NaCl, 125; KCl, 2.5; CaCl2, 1.2; MgCl2, 1.2; NaHCO3, 25; NaH2PO4, 1.25; glucose, 25. fEPSPs were recorded in acute hippocampal slices with a glass pipette containing Tyrode solution (1-2 MΩ) from synapses in the CA1 using a MultiClamp700B amplifier (Molecular Devices). Stimulation of the Shaffer Collateral (SC) pathway was delivered through a glass suction electrode (10-20 μm tip) filled with Tyrode. Data were analyzed using pClamp10 (Molecular Devices).

Molecules are shown by their SMILES. Values joined by “and” are separate entries in the source; they are usually repeats but may differ in a detail not shown here. Equal entries are not always repeated. “Also recorded” adds a separate entry of the source.

On to `COc1ccc(-c2ccc(=N)n(CCCC(=O)O)n2)cc1` [gabazine], for which the “MFR renormalization following 2 days of gabazine application” value in data set [1] (30 μM, APP/PS1 neurons) is on record as “disrupted”. Moreover, in data set [1] (30 μM, WT networks), the “population firing rate on gabazine application (acute)” value was “fast and pronounced increase”. In addition, the “MFR following 2 days of gabazine application” value in data set [1] (30 μM, WT neurons) is “renormalized to the baseline level”.
In the case of `FC(F)OC(Cl)C(F)(F)F` (stereo not shown) [isoflurane], the “choice accuracy in delta maze following anesthesia” value in data set [2] was “decrease in choice accuracy”. In addition, the “epileptiform high-voltage spikes in CA1” value in data set [3] (4-5 months old APP/PS1 mice under general anesthesia (1.5% isoflurane)) is 3.22±0.51 per min. In addition, the “CA1 activity under anesthesia” value in data set [4] (APP/PS1 mice) is listed as “maintained constant”. Also, the “suppression of total CA1 activity” value in data set [4] (WT mice, deep anesthesia (1.5% isoflurane)) is recorded as ~87%; in data set [4] (WT mice, moderate anesthesia (1% isoflurane)), ~57%. Also, the figures for the “network MFR after isoflurane application” value in data set [1] (APP/PS1 cultures) and in data set [1] (WT cultures) were 112.5±8.7 % of baseline and 42.0±0.9 % of baseline, respectively.
In the case of `Cc1cccc(C(C)c2cnc[nH]2)c1C` (stereo not shown) [medetomidine], the “CA1 activity under anesthesia” value in data set [4] (APP/PS1 mice) is “much lower level of suppression”; in data set [4] (WT mice, data not shown), “pronounced inhibition of CA1 activity”.
For the compound `NC1=N[C@H](O)[C@H]2[C@H]3O[C@]4(O)O[C@@H]([C@@H](O)[C@@]2(N1)[C@@H]4O)[C@]3(O)CO` [TTX, tetrodotoxin], in data set [3] (mouse, in vivo), the “rate of epileptiform CA1 spikes vs baseline” value was “profound decrease; also recorded: reduction”.
In the case of `C[N+]1([O-])CCN(C2=Nc3cc(Cl)ccc3Nc3ccccc32)CC1` [CNO], the nRE-CA1 synaptic transmission result in data set [5] was “suppressed”. In addition, the “decrease in the rate of epileptiform CA1 spikes vs vehicle” value in data set [3] (i.p. 5 mg/kg, anesthetized APP/PS1 mice expressing hM4D(Gi)-mCherry in nRE-CA1 synapses) is listed as ~53%.
In the case of `NCC(CC(=O)O)c1ccc(Cl)cc1` (stereo not shown) [baclofen], the “MFR homeostatic response to chronic inactivity” value in data set [1] (baclofen 10 μM, WT and APP/PS1 networks, first day of perturbation) is on record as “homeostatically compensated”.
With `C/C(O)=C(\C#N)C(=O)Nc1ccc(C(F)(F)F)cc1` [TERI, (2Z)-2-cyano-3-hydroxy-N-[4-(trifluoromethyl)phenyl]but-2-enamide], the “reduction in the frequency of high-voltage CA1 spikes vs baseline” value in data set [3] (ICV 27 μg in 1 μl, anesthetized APP/PS1 mice) was ~50% and 50.7±7.2%. The “frequency of high-voltage spikes after TERI ICV injection” value in data set [3] (ICV 27 μg in 1 μl, baseline 7.6±1.4 per min, n=9 anesthetized APP/PS1 mice) is on record as 3.8±0.95 per min. For the same compound, the half-inhibitory concentration (IC50) in data set [6] (Mus musculus, hippocampal slices of APP/PS1 mice) amounted to 19.1 µM; in data set [6] (Mus musculus, hippocampal slices of WT mice), 17.6 µM; in data set [6] (hippocampal slices of APP/PS1 mice) it was 19.2 ± 1 µM. Also, in data set [1] (APP/PS1 networks ex vivo, data not shown), the “negative regulation of MFR set points by TERI” value is listed as “preserved”.

By IC50 is commonly meant the midpoint of a concentration-inhibition curve. High values mean weaker potency, low ones greater potency.
